PubChem BioAssay (NCI)
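A five-concentration, 48-hour dose response in 96-well plates underlies each endpoint, interpolated linearly between surrounding concentrations. Definition used: TGI = concentration required for complete inhibition of growth.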

Key:
Assay in all cases: NCI anticancer screen, dose series, 48 h
EKVX NSCLC = tested on: EKVX NSCLC
COLO 205 colon = tested on: COLO 205 colon
HL-60(TB) leukemia = tested on: HL-60(TB) leukemia
OVCAR-3 ovarian = tested on: OVCAR-3 ovarian
SK-MEL-28 melanoma = tested on: SK-MEL-28 melanoma
NCI-H522 lung = tested on: NCI-H522 lung
UACC-257 melanoma = tested on: UACC-257 melanoma
HT29 colon = tested on: HT29 colon
OVCAR-8 ovarian = tested on: OVCAR-8 ovarian
UACC-62 melanoma = tested on: UACC-62 melanoma
HCC-2998 colon = tested on: HCC-2998 colon
HCT-15 colon = tested on: HCT-15 colon
U251 CNS = tested on: U251 CNS
SNB-19 CNS = tested on: SNB-19 CNS
CAKI-1 renal = tested on: CAKI-1 renal
HCT-116 colon = tested on: HCT-116 colon
SF-539 CNS = tested on: SF-539 CNS
NCI/ADR-RES ovarian = tested on: NCI/ADR-RES ovarian
RPMI-8226 leukemia = tested on: RPMI-8226 leukemia
HS 578T breast = tested on: HS 578T breast
T-47D breast = tested on: T-47D breast
LOX IMVI melanoma = tested on: LOX IMVI melanoma
SR leukemia = tested on: SR leukemia
BT-549 breast = tested on: BT-549 breast
SF-268 CNS = tested on: SF-268 CNS
RXF 393 renal = tested on: RXF 393 renal
CCRF-CEM leukemia = tested on: CCRF-CEM leukemia
IGROV1 ovarian = tested on: IGROV1 ovarian
NCI-H460 lung = tested on: NCI-H460 lung
786-0 renal = tested on: 786-0 renal
A498 renal = tested on: A498 renal
PC-3 prostate = tested on: PC-3 prostate
HOP-92 NSCLC = tested on: HOP-92 NSCLC
NCI-H226 lung = tested on: NCI-H226 lung
MCF7 breast = tested on: MCF7 breast
SNB-75 CNS = tested on: SNB-75 CNS
ACHN renal = tested on: ACHN renal
DU-145 prostate = tested on: DU-145 prostate
SK-MEL-5 melanoma = tested on: SK-MEL-5 melanoma
MOLT-4 leukemia = tested on: MOLT-4 leukemia
MDA-MB-435 = tested on: MDA-MB-435
M14 melanoma = tested on: M14 melanoma
SK-OV-3 ovarian = tested on: SK-OV-3 ovarian
SW-620 colon = tested on: SW-620 colon
NCI-H23 lung = tested on: NCI-H23 lung
KM12 colon = tested on: KM12 colon
MDA-N = tested on: MDA-N
OVCAR-5 ovarian = tested on: OVCAR-5 ovarian
SF-295 CNS = tested on: SF-295 CNS
K-562 leukemia = tested on: K-562 leukemia
SN12C renal = tested on: SN12C renal
MALME-3M melanoma = tested on: MALME-3M melanoma
UO-31 renal = tested on: UO-31 renal
TK-10 renal = tested on: TK-10 renal
A549 NSCLC = tested on: A549 NSCLC
SK-MEL-2 melanoma = tested on: SK-MEL-2 melanoma
HOP-62 NSCLC = tested on: HOP-62 NSCLC
MDA-MB-231 breast = tested on: MDA-MB-231 breast
OVCAR-4 ovarian = tested on: OVCAR-4 ovarian

With `CN(C)CCn1c(=O)c2ccc(NCCCN(C)CCCNc3ccc4c(=O)n(CCN(C)C)c(=O)n5c6ccccc6c(=O)c3c45)c3c(=O)c4ccccc4n(c1=O)c23` the TGI (EKVX NSCLC) was 1100 nM, the TGI (COLO 205 colon) was 376 nM and the TGI (HL-60(TB) leukemia) was 1060 nM. The TGI (OVCAR-3 ovarian) was 1.21 µM, the TGI (SK-MEL-28 melanoma) was 1940 nM and the TGI (NCI-H522 lung) was 0.517 µM. The TGI (UACC-257 melanoma) was 1820 nM, the TGI (HT29 colon) was 1060 nM and the TGI (OVCAR-8 ovarian) was 0.49 µM. For the same molecule, the TGI (UACC-62 melanoma) was 1580 nM, the TGI (HCC-2998 colon) was 224 nM and the TGI (HCT-15 colon) was 421 nM. It also gave a TGI (U251 CNS) of 1.06 µM, a TGI (SNB-19 CNS) of 1330 nM and a TGI (CAKI-1 renal) of 426 nM. For the same molecule, the TGI (HCT-116 colon) was 1030 nM, the TGI (SF-539 CNS) was 1.78 µM and the TGI (NCI/ADR-RES ovarian) was 1480 nM. For the same molecule, the TGI (RPMI-8226 leukemia) was 231 nM, the TGI (HS 578T breast) was 1.76 µM and the TGI (T-47D breast) was 8.33 µM. For the same molecule, the TGI (LOX IMVI melanoma) was 164 nM, the TGI (SR leukemia) was 504 nM and the TGI (BT-549 breast) was 1.75 µM. For the same molecule, the TGI (SF-268 CNS) was 2.11 µM, the TGI (RXF 393 renal) was 362 nM and the TGI (CCRF-CEM leukemia) was 81.9 nM. For the same molecule, the TGI (IGROV1 ovarian) was 194 nM, the TGI (NCI-H460 lung) was 139 nM and the TGI (786-0 renal) was 1080 nM. For the same molecule, the TGI (A498 renal) was 2.13 µM, the TGI (PC-3 prostate) was 0.654 µM and the TGI (HOP-92 NSCLC) was 0.735 µM. The TGI (NCI-H226 lung) was 535 nM, the TGI (MCF7 breast) was 904 nM and the TGI (SNB-75 CNS) was 0.334 µM. It also gave a TGI (ACHN renal) of 949 nM, a TGI (DU-145 prostate) of 533 nM and a TGI (SK-MEL-5 melanoma) of 1170 nM. The TGI (MOLT-4 leukemia) was 0.0853 µM, the TGI (MDA-MB-435) was 0.127 µM and the TGI (M14 melanoma) was 1.9 µM. The TGI (SK-OV-3 ovarian) was 2.43 µM, the TGI (SW-620 colon) was 231 nM and the TGI (NCI-H23 lung) was 0.546 µM. The TGI (KM12 colon) was 590 nM, the TGI (MDA-N) was 1.6 µM and the TGI (OVCAR-5 ovarian) was 3.56 µM. The TGI (SF-295 CNS) was 1540 nM, the TGI (K-562 leukemia) was 1300 nM and the TGI (SN12C renal) was 1.18 µM. It also gave a TGI (MALME-3M melanoma) of 2.33 µM, a TGI (UO-31 renal) of 530 nM and a TGI (TK-10 renal) of 1480 nM. The TGI (A549 NSCLC) was 472 nM, the TGI (SK-MEL-2 melanoma) was 2.44 µM and the TGI (HOP-62 NSCLC) was 0.838 µM. It also gave a TGI (MDA-MB-231 breast) of 0.54 µM.
`COc1ccc(/C=C2\N=C(N/N=C\C(O)C(O)C(O)C(O)CO)NC2=O)cc1` (stereo not given) was tested, and the TGI (EKVX NSCLC) was greater than 100000 nM, the TGI (COLO 205 colon) was greater than 100000 nM and the TGI (HL-60(TB) leukemia) was greater than 100000 nM. The TGI (OVCAR-3 ovarian) was 33.7 µM, the TGI (SK-MEL-28 melanoma) was greater than 100000 nM and the TGI (NCI-H522 lung) was 46 µM. The TGI (UACC-257 melanoma) was greater than 100000 nM, the TGI (HT29 colon) was greater than 100000 nM and the TGI (OVCAR-8 ovarian) was 88.3 µM. The TGI (HCC-2998 colon) was greater than 100000 nM, the TGI (HCT-15 colon) was greater than 100000 nM and the TGI (U251 CNS) was 42.7 µM. For the same molecule, the TGI (CAKI-1 renal) was greater than 100000 nM, the TGI (HCT-116 colon) was greater than 100000 nM and the TGI (OVCAR-4 ovarian) was 53 µM. For the same molecule, the TGI (SF-539 CNS) was 38.5 µM, the TGI (NCI/ADR-RES ovarian) was greater than 100000 nM and the TGI (RPMI-8226 leukemia) was greater than 100000 nM. For the same molecule, the TGI (HS 578T breast) was 71.7 µM, the TGI (T-47D breast) was 27.7 µM and the TGI (LOX IMVI melanoma) was greater than 100000 nM. The TGI (SR leukemia) was greater than 100000 nM, the TGI (BT-549 breast) was 50.6 µM and the TGI (SF-268 CNS) was 63.2 µM. The TGI (RXF 393 renal) was greater than 100000 nM, the TGI (CCRF-CEM leukemia) was greater than 100000 nM and the TGI (IGROV1 ovarian) was greater than 100000 nM. The TGI (NCI-H460 lung) was greater than 100000 nM, the TGI (786-0 renal) was greater than 100000 nM and the TGI (A498 renal) was 93 µM. For the same molecule, the TGI (PC-3 prostate) was 69.5 µM, the TGI (HOP-92 NSCLC) was 33.9 µM and the TGI (NCI-H226 lung) was greater than 100000 nM. The TGI (MCF7 breast) was greater than 100000 nM, the TGI (SNB-75 CNS) was 54.3 µM and the TGI (ACHN renal) was greater than 100000 nM. It also gave a TGI (DU-145 prostate) greater than 100000 nM, a TGI (SK-MEL-5 melanoma) greater than 100000 nM and a TGI (MOLT-4 leukemia) of 62.3 µM. For the same molecule, the TGI (MDA-MB-435) was 91.1 µM, the TGI (M14 melanoma) was 35.7 µM and the TGI (SK-OV-3 ovarian) was 50.3 µM. It also gave a TGI (SW-620 colon) greater than 100000 nM, a TGI (NCI-H23 lung) of 54 µM and a TGI (KM12 colon) greater than 100000 nM. For the same molecule, the TGI (MDA-N) was 39.6 µM, the TGI (OVCAR-5 ovarian) was greater than 100 µM and the TGI (SF-295 CNS) was greater than 100000 nM. The TGI (K-562 leukemia) was greater than 100000 nM, the TGI (SN12C renal) was 52.2 µM and the TGI (MALME-3M melanoma) was 43.4 µM. It also gave a TGI (UO-31 renal) greater than 100000 nM, a TGI (TK-10 renal) greater than 100000 nM and a TGI (A549 NSCLC) greater than 100000 nM. For the same molecule, the TGI (SK-MEL-2 melanoma) was 36.6 µM, the TGI (HOP-62 NSCLC) was 54.9 µM and the TGI (MDA-MB-231 breast) was 88.5 µM.
